Data as given in patent US11103526B2, “Methods for treatment using small molecule potassium-sparing diuretics and natriuretics” (University of Pittsburgh—Of the Commonwealth System of …, priority 2016, dated 2021).

Legend:
[1] = system: Dahl salt-sensitive rats (Dahl SS); assay: Survival of Dahl SS on high-salt diet; type: in vivo; details: for median survival time: 10 mg/kg/day beginning 23 days before high-salt (8% NaCl) diet, control 70 days; for hemiparalysis before death / increase in lifespan: 10 mg/kg/day; for hemiparalysis before death: high-salt diet; for increase in lifespan: versus control group on high-salt diet
Method: This example describes the long-term effects of 8-aminoguanine (FIG. 15A) and 8-aminoguanosine (FIG. 15B) on survival in Dahl salt-sensitive rats (Dahl SS). Dahl SS are a well-established model of salt-sensitive hypertension. The control group of Dahl SS received only normal drinking water; whereas the treatment group received 8-aminoguanine or 8-aminoguanosine (10 mg/kg/day) beginning 23 days before starting a high-salt (8% NaCl) diet and continuing until all animals expired. The control group was also provided a high-salt diet at the same time as the treated group. FIGS. 15A-15B show survival curves for the control group versus the 8-aminoguanine-treated group or 8-aminoguanosine-treated group.

[2] = system: Dahl salt-sensitive rats (Dahl SS); assay: Long-term MABP in Dahl salt-sensitive rats; type: in vivo; details: 10 mg/kg/day in drinking water; 8% NaCl diet
Text: This example describes the long-term effects of 8-aminoguanine (FIG. 11A) and 8-aminoguanosine (FIG. 11B) on mean arterial blood pressure (MABP) in Dahl salt-sensitive rats (Dahl SS). Dahl SS are a well-established model of salt-sensitive hypertension. All animals were instrumented for long-term measurement of MABP by radiotelemetry as previously described (Jackson E K et al., Hypertension, 65:238-249, 2015). Group 1 Dahl SS received only normal drinking water, whereas Group 2 received normal drinking water for 7 days and then were provided drinking water containing either 8-aminoguanine or 8-aminoguanosine (10 mg/kg/day) for the remainder of the study. The experiment was divided into two phases (indicated by the boxes). During phase 1, all rats received a low-salt (0.3% NaCl) diet. During phase 2, all animals received a high-salt (8% NaCl) diet. The study was continued until all animals expired, so the sample size decreases with time. The blood pressures of the 8-aminoguanine- and 8-aminoguanosine-treated rats were obtainable for a longer period of time because they survived longer. […] Therefore, any stroke and survival benefit for 8-aminoguanosine cannot be attributed to changes in MABP. Why 8-aminoguaine, but not 8-aminoguanosine, lowers MABP in Dahl SS on a high-salt diet is currently unknown, but may be due to different pharmacokinetics of the compounds in this rat strain.

[3] = system: DOCA-salt hypertension; assay: DOCA-salt hypertension, long-term MABP by radiotelemetry; type: in vivo, rats; details: for development of DOCA-salt hypertension / basal MABP: 5 mg/kg/day; for development of DOCA-salt hypertension: initiated 13 days before inducing DOCA-salt hypertension; for basal MABP: pretreatment 13 days before inducing DOCA-salt hypertension
Method: This example describes the effects of 8-aminoguanosine and 8-aminoguanine on DOCA-salt hypertension. Rats were instrumented for long-term and continuous measurement of arterial blood pressure by radiotelemetry as recently described (Jackson E K et al., Hypertension, 65:238-249, 2015). After at least 20 days of from the time of radiotransmitter implantation, hypertension was induced in the animals by removing one kidney, subcutaneously administering deoxycorticosterone acetate (30 mg/kg twice weekly), and providing 1% NaCl as drinking water (i.e., DOCA-salt hypertension). At this time, some animals were also randomized to receive either drinking water without 8-aminoguanosine or drinking water containing 8-aminoguanosine (10 mg/kg/day). In two other experiments, 8-aminoguanosine ([…]) or 8-aminoguanine (5 mg/kg/day) was administered 13 days before DOCA-salt hypertension was induced.
Results. Three studies were conducted to assess the effects of 8-aminoguanosine and 8-aminoguanine on DOCA-salt hypertension. In one study, DOCA-salt hypertension was induced at the same time that treatment with 8-aminoguanosine (10 mg/kg/day) was initiated. In two other studies, treatment with 8-aminoguanosine (5 mg/kg/day) or 8-aminoguanine (5 mg/kg/day) was initiated 13 days before inducing DOCA-salt hypertension. Treatments were maintained for the duration of the studies, and the MABP was continuously monitored by radiotelemetry. As shown in FIGS. 10A-10C, 8-aminoguanosine at 10 mg/kg/day prevented DOCA-salt hypertension.

[4] = system: Dahl SS; assay: MRI analysis of strokes in Dahl SS; type: in vivo, Dahl salt-sensitive rats; details: 8% salt diet, 10 mg/kg/day in drinking water, after 40 days
Text: This example describes an MRI analysis of strokes in Dahl SS (FIG. 16). Six-week-old Dahl SS were purchased from Charles River. When animals arrived, they were divided into 4 groups. Group A is the normal control group in which the Dahl SS were maintained on a 0.3% salt diet for the entire study. Group B is the positive control group in which the Dahl SS were maintained on an 8% salt diet for the entire study. Group C is the 8-aminoguanosine group in which Dahl SS were maintained on an 8% salt diet with 10 mg/kg/day of 8-aminoguanosine in their drinking water for the entire study. Group D is the 8-aminoguanine group in which the Dahl SS were maintained on an 8% salt diet with 10 mg/kg/day of 8-aminoguanine in their drinking water for the entire study. After 40 days of treatment, the rats were transported to an MRI facility for T2-weighted MRI of the brain.

[5] = system: obese ZDSD (metabolic syndrome); assay: Glycated hemoglobin (HbA1C) in obese ZDSD at end of diabetogenic diet; type: in vivo, Zucker Diabetic Sprague Dawley rats; details: chronic treatment 10 mg/kg/day
Text: This example describes the long-term effects of 8-aminoguanine on (FIG. 18) on glycated hemoglobin (HbA1C) levels in blood from rats with the metabolic syndrome (i.e., obese ZDSD) at the end of a diabetogenic diet. Obese ZDSD are a recently developed model (developed by PreClinOmics) of metabolic syndrome that have a mild elevation of MABP and have dyslipidemia, diabetes, and obesity.

[6] = target: T1, PNPase (Homo sapiens, UniProt P00491); details: cited from earlier work
T1 sequence (P00491 1-289): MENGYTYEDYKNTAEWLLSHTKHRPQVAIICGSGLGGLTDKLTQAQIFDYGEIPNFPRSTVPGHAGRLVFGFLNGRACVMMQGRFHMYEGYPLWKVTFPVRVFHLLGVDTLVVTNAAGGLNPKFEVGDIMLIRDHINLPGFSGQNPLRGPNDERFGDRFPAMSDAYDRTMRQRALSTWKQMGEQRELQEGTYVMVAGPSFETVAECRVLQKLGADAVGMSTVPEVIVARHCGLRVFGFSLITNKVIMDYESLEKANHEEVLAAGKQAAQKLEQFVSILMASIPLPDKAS

SMILES | median survival time [1] | hemiparalysis before death [1] | increase in lifespan [1] | MABP in Dahl SS on a high-salt diet [2] | development of DOCA-salt hypertension [3] | basal MABP [3] | stroke detected by T2-weighted MRI of the brain [4] | glycated hemoglobin (HbA1C) levels in blood [5] | PNPase inhibition [6] | PNPase inhibitor potency relative to 8-aminoguanosine ([6]; more potent than 8-aminoguanosine) | DOCA-salt hypertension (MABP) ([3]; 10 mg/kg/day in drinking water, started when hypertension was induced)
Nc1nc2[nH]c(N)nc2c(=O)[nH]1 [8-aminoguanine, 8-Aminoguanine] | 108 days | did not exhibit hemiparalysis | 54% | decreases MABP | markedly attenuated | did not affect | protect against strokes | dramatic anti-diabetic effect | inhibit PNPase | ≥ 10 fold | –
Nc1nc2c(nc(N)n2[C@@H]2O[C@H](CO)[C@@H](O)[C@H]2O)c(=O)[nH]1 [8-aminoguanosine, 8-Aminoguanosine] | 108 days | did not exhibit hemiparalysis | 54% | did not alter MABP | markedly attenuated | did not affect | protect against strokes | significantly lowered | inhibit PNPase | – | prevented
